Assay results taken from the NIST ThermoML archive (doi:10.1016/j.jct.2016.11.002).

Columns and labels:
[1] = xn = mol fraction of the nth substance listed; conditions: 100 kPa, Liquid; for speed of sound: Frequency=3 MHz, Single path-length method; for mass density: Vibrating tube method
[2] = refractive index (Na D-line) (dimensionless); xn = mol fraction of the nth substance listed; conditions: 100 kPa, Liquid, Standard Abbe refractometry

COCCO [2-methoxyethan-1-ol] + CCOC(=O)OCC
Conditions | mass density, [1] [kg/m3] | refractive index, [2] | speed of sound, [1] [m/s]
298.15 K, x2 = 0 | 960.32 | 1.4001 | 1342.1
298.15 K, x2 = 0.0645 | 960.64 | 1.3989 | 1322.5
298.15 K, x2 = 0.1406 | 961.01 | 1.3976 | 1302.2
298.15 K, x2 = 0.2248 | 961.49 | 1.3963 | 1282.2
298.15 K, x2 = 0.3025 | 961.99 | 1.3951 | 1265.8
298.15 K, x2 = 0.3928 | 962.65 | 1.3936 | 1248.7
298.15 K, x2 = 0.4994 | 963.51 | 1.3916 | 1231.2
298.15 K, x2 = 0.6007 | 964.44 | 1.3897 | 1216.9
298.15 K, x2 = 0.7212 | 965.66 | 1.3874 | 1202.5
298.15 K, x2 = 0.8496 | 967.12 | 1.3851 | 1189.7
303.15 K, x2 = 0 | 955.71 | 1.3981 | 1324.7
303.15 K, x2 = 0.0645 | 955.91 | 1.3969 | 1304.6
303.15 K, x2 = 0.1406 | 956.16 | 1.3957 | 1283.8
303.15 K, x2 = 0.2248 | 956.52 | 1.3943 | 1263.4
303.15 K, x2 = 0.3025 | 956.91 | 1.3931 | 1246.7
303.15 K, x2 = 0.3928 | 957.45 | 1.3915 | 1229.4
303.15 K, x2 = 0.4994 | 958.2 | 1.3895 | 1211.7
303.15 K, x2 = 0.6007 | 959.03 | 1.3876 | 1197.2
303.15 K, x2 = 0.7212 | 960.16 | 1.3853 | 1182.5
303.15 K, x2 = 0.8496 | 961.54 | 1.3829 | 1169.5
308.15 K, x2 = 0 | 951.08 | 1.3961 | 1307.4
308.15 K, x2 = 0.0645 | 951.16 | 1.395 | 1286.7
308.15 K, x2 = 0.1406 | 951.29 | 1.3938 | 1265.4
308.15 K, x2 = 0.2248 | 951.51 | 1.3924 | 1244.7
308.15 K, x2 = 0.3025 | 951.79 | 1.3911 | 1227.7
308.15 K, x2 = 0.3928 | 952.22 | 1.3894 | 1210.2
308.15 K, x2 = 0.4994 | 952.85 | 1.3875 | 1192.4
308.15 K, x2 = 0.6007 | 953.59 | 1.3855 | 1177.7
308.15 K, x2 = 0.7212 | 954.63 | 1.3832 | 1162.7
308.15 K, x2 = 0.8496 | 955.94 | 1.3807 | 1149.3
313.15 K, x2 = 0 | 946.42 | 1.3943 | 1290
313.15 K, x2 = 0.0645 | 946.39 | 1.3931 | 1268.8
313.15 K, x2 = 0.1406 | 946.49 | 1.3918 | 1247
313.15 K, x2 = 0.2248 | 946.58 | 1.3904 | 1226
313.15 K, x2 = 0.3025 | 946.66 | 1.389 | 1208.8
313.15 K, x2 = 0.3928 | 946.97 | 1.3874 | 1191.2
313.15 K, x2 = 0.4994 | 947.49 | 1.3854 | 1173.2
313.15 K, x2 = 0.6007 | 948.13 | 1.3834 | 1158.3
313.15 K, x2 = 0.7212 | 949.08 | 1.3811 | 1143
313.15 K, x2 = 0.8496 | 950.31 | 1.3786 | 1129.4
318.15 K, x2 = 0 | 941.72 | 1.3922 | 1272.7
318.15 K, x2 = 0.0645 | 941.57 | 1.3913 | 1251
318.15 K, x2 = 0.1406 | 941.44 | 1.39 | 1228.8
318.15 K, x2 = 0.2248 | 941.41 | 1.3885 | 1207.4
318.15 K, x2 = 0.3025 | 941.48 | 1.3871 | 1190.1
318.15 K, x2 = 0.3928 | 941.67 | 1.3853 | 1172.3
318.15 K, x2 = 0.4994 | 942.07 | 1.3833 | 1154.1
318.15 K, x2 = 0.6007 | 942.61 | 1.3814 | 1139.1
318.15 K, x2 = 0.7212 | 943.46 | 1.379 | 1123.5
318.15 K, x2 = 0.8496 | 944.62 | 1.3764 | 1109.7
323.15 K, x2 = 0 | 936.89 | 1.3902 | 1255.4
323.15 K, x2 = 0.0645 | 936.71 | 1.3894 | 1233.2
323.15 K, x2 = 0.1406 | 936.46 | 1.3881 | 1210.6
323.15 K, x2 = 0.2248 | 936.29 | 1.3865 | 1188.9
323.15 K, x2 = 0.3025 | 936.25 | 1.385 | 1171.4
323.15 K, x2 = 0.3928 | 936.34 | 1.3832 | 1153.5
323.15 K, x2 = 0.4994 | 936.62 | 1.3812 | 1135.1
323.15 K, x2 = 0.6007 | 937.08 | 1.3792 | 1119.9
323.15 K, x2 = 0.7212 | 937.86 | 1.3768 | 1104.2
323.15 K, x2 = 0.8496 | 938.96 | 1.3743 | 1090

CCCOCCO [2-propoxyethanol] + CCOC(=O)OCC
Conditions | mass density, [1] [kg/m3] | refractive index, [2] | speed of sound, [1] [m/s]
298.15 K, x2 = 0 | 907.16 | 1.4103 | 1300.9
298.15 K, x2 = 0.0881 | 912.3 | 1.4089 | 1289.1
298.15 K, x2 = 0.1907 | 918.42 | 1.4074 | 1276.1
298.15 K, x2 = 0.2866 | 924.17 | 1.4062 | 1264
298.15 K, x2 = 0.3906 | 930.48 | 1.4046 | 1250.3
298.15 K, x2 = 0.484 | 936.17 | 1.4023 | 1237.8
298.15 K, x2 = 0.5955 | 943.04 | 1.3988 | 1223.4
298.15 K, x2 = 0.6907 | 948.97 | 1.3953 | 1211.7
298.15 K, x2 = 0.7908 | 955.29 | 1.3914 | 1200
298.15 K, x2 = 0.8939 | 961.94 | 1.3871 | 1188.5
303.15 K, x2 = 0 | 902.74 | 1.4081 | 1283.7
303.15 K, x2 = 0.0881 | 907.76 | 1.4068 | 1271.7
303.15 K, x2 = 0.1907 | 913.74 | 1.4054 | 1258.2
303.15 K, x2 = 0.2866 | 919.36 | 1.4042 | 1245.6
303.15 K, x2 = 0.3906 | 925.55 | 1.4026 | 1231.5
303.15 K, x2 = 0.484 | 931.11 | 1.4004 | 1218.7
303.15 K, x2 = 0.5955 | 937.84 | 1.3968 | 1203.9
303.15 K, x2 = 0.6907 | 943.65 | 1.3933 | 1192
303.15 K, x2 = 0.7908 | 949.85 | 1.3894 | 1180.1
303.15 K, x2 = 0.8939 | 956.4 | 1.385 | 1168.3
308.15 K, x2 = 0 | 898.32 | 1.4058 | 1266.4
308.15 K, x2 = 0.0881 | 903.19 | 1.4046 | 1254.2
308.15 K, x2 = 0.1907 | 909.01 | 1.4034 | 1240.2
308.15 K, x2 = 0.2866 | 914.52 | 1.4023 | 1227.1
308.15 K, x2 = 0.3906 | 920.55 | 1.4006 | 1212.7
308.15 K, x2 = 0.484 | 926.02 | 1.3984 | 1199.7
308.15 K, x2 = 0.5955 | 932.6 | 1.3948 | 1184.6
308.15 K, x2 = 0.6907 | 938.31 | 1.3912 | 1172.3
308.15 K, x2 = 0.7908 | 944.38 | 1.3873 | 1160.2
308.15 K, x2 = 0.8939 | 950.83 | 1.3828 | 1148.2
313.15 K, x2 = 0 | 893.89 | 1.4034 | 1249.2
313.15 K, x2 = 0.0881 | 898.63 | 1.4024 | 1236.8
313.15 K, x2 = 0.1907 | 904.33 | 1.4014 | 1222.3
313.15 K, x2 = 0.2866 | 909.68 | 1.4004 | 1208.8
313.15 K, x2 = 0.3906 | 915.57 | 1.3987 | 1194
313.15 K, x2 = 0.484 | 920.91 | 1.3964 | 1180.7
313.15 K, x2 = 0.5955 | 927.35 | 1.3928 | 1165.3
313.15 K, x2 = 0.6907 | 932.94 | 1.3892 | 1152.9
313.15 K, x2 = 0.7908 | 938.9 | 1.3851 | 1140.5
313.15 K, x2 = 0.8939 | 945.23 | 1.3805 | 1128.3
318.15 K, x2 = 0 | 889.45 | 1.4011 | 1231.9
318.15 K, x2 = 0.0881 | 894.03 | 1.4003 | 1219.3
318.15 K, x2 = 0.1907 | 899.58 | 1.3995 | 1204.5
318.15 K, x2 = 0.2866 | 904.8 | 1.3985 | 1190.6
318.15 K, x2 = 0.3906 | 910.54 | 1.3967 | 1175.3
318.15 K, x2 = 0.484 | 915.74 | 1.3944 | 1161.8
318.15 K, x2 = 0.5955 | 922.05 | 1.3908 | 1146.2
318.15 K, x2 = 0.6907 | 927.53 | 1.3872 | 1133.5
318.15 K, x2 = 0.7908 | 933.4 | 1.3831 | 1121
318.15 K, x2 = 0.8939 | 939.63 | 1.3782 | 1108.6
323.15 K, x2 = 0 | 885 | 1.3988 | 1215
323.15 K, x2 = 0.0881 | 889.44 | 1.3982 | 1201.9
323.15 K, x2 = 0.1907 | 894.82 | 1.3975 | 1186.8
323.15 K, x2 = 0.2866 | 899.91 | 1.3966 | 1172.5
323.15 K, x2 = 0.3906 | 905.53 | 1.3947 | 1156.9
323.15 K, x2 = 0.484 | 910.62 | 1.3924 | 1143.2
323.15 K, x2 = 0.5955 | 916.75 | 1.3888 | 1127.3
323.15 K, x2 = 0.6907 | 922.11 | 1.3852 | 1114.5
323.15 K, x2 = 0.7908 | 927.83 | 1.3809 | 1101.7
323.15 K, x2 = 0.8939 | 933.96 | 1.376 | 1089
